The values below come from patent US10407381B2 (THE BOARD OF TRUSTEES OF THE UNIVERSITY OF ILLINOIS, priority 2015, dated 2019).

The target of assay [1] is 5-HT2B (Homo sapiens, UniProt P41595). The assay is described as follows: Calcium flux (FLIPR) assay, human 5-HT2B stably expressed in HEK-293 (Flp-In-293) cells. The conditions noted are these: human 5-HT2B in HEK-293 cells; for EC50: EC50, nM 5-HT2B, NA = no activity at 10 μM; for Emax, % 5-HT 5-HT2B: normalized to 5-HT. For orientation: Calcium flux is commonly read through the fluorescence of an indicator in the cells.
Sequence of 5-HT2B (P41595 whole entry): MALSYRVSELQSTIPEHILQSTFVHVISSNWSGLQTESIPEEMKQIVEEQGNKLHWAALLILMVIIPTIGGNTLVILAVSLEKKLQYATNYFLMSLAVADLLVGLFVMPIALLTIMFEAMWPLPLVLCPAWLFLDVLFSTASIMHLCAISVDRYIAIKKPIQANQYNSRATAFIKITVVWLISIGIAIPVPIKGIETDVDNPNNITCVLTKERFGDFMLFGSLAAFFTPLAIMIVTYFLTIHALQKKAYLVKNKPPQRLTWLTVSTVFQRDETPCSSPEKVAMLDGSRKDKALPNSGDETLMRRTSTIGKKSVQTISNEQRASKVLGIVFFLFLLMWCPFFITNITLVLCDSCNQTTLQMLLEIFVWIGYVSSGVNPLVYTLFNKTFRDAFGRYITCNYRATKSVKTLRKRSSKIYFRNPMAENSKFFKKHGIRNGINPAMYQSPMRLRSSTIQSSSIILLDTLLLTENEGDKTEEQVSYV

Assay [2] deals with T1, human 5-HT2C-INI (Homo sapiens, UniProt P28335).
T1 sequence (P28335 33-458): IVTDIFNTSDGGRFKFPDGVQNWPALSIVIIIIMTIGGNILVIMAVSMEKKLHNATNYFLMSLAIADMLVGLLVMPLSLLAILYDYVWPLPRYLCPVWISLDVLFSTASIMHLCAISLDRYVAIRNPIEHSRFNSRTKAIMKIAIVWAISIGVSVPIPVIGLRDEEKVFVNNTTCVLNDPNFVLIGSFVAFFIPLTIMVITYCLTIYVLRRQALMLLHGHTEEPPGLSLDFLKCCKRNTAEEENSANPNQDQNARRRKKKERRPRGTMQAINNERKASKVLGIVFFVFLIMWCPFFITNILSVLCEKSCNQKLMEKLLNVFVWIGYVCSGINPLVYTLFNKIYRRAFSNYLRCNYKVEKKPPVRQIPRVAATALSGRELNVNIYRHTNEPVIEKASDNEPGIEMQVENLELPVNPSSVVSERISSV
As to the kind of experiment: Calcium flux (FLIPR) assay, human 5-HT2C-INI stably expressed in HEK-293 (Flp-In-293) cells. As to conditions: human 5-HT2C-INI in HEK-293 cells, FLIPR; for EC50: NA = no activity at 10 μM; for Emax, % 5-HT 5-HT2C: normalized to 5-HT.

Molecules are shown by their SMILES. Read-outs that look alike come from different tables or passages of the source.

The term EC50 denotes the concentration that produces a half-maximal response.

In the case of `NCC1CC1c1cc(Cl)ccc1OCCCF` (single isomer, unassigned; (+)) [(+)-Example 20, (+)-(2-(5-Chloro-2-(3-fluoropropoxy)phenyl)cyclopropyl)methanamine], the EC50 was 4910 nM in assay [1] and 206 nM in assay [2] (EC50, nM 5-HT2C). In addition, the “Emax, % 5-HT 5-HT2B” value in assay [1] was “(22%) % 5-HT”. In addition, the “Emax, % 5-HT 5-HT2C” value in assay [2] was “(60%) % 5-HT”.

`C=CCOc1cc(Cl)c(Cl)cc1C1CC1CN` (single isomer, unassigned; (+)) [(+)-Example 35, (+)-(2-(2-(Allyloxy)-4,5-dichlorophenyl)cyclopropyl)methanamine]: the EC50 in assay [2] (EC50, nM 5-HT2C) was 61 nM. Besides, the “Emax, % 5-HT 5-HT2C” value in assay [2] is recorded as “(88%) % 5-HT”.

Turning to `CCCOc1ccc(F)cc1C1CC1CN` (single isomer, unassigned; (-)) [(−)-Example 7, (−)-(2-(5-Fluoro-2-propoxyphenyl)cyclopropyl)methanamine], in assay [1], the 50% effective concentration (EC50) amounted to 735 nM and the “Emax, % 5-HT 5-HT2B” value is listed as “(11%) % 5-HT”. Besides, in assay [2] (EC50, nM 5-HT2C), the EC50 is 296 nM. Also, in assay [2], the “Emax, % 5-HT 5-HT2C” value is “(80%) % 5-HT”.

For `NCC1CC1c1cc(F)c(F)cc1OCCF` (single isomer, unassigned; (-)) [(−)-Example 42, (−)-(2-(4,5-Difluoro-2-(2-fluoroethoxy)phenyl)cyclopropyl)methanamine], the EC50 in assay [2] (EC50, nM 5-HT2C) was 772 nM. Besides, the “Emax, % 5-HT 5-HT2C” value in assay [2] was “(73%) % 5-HT”.

As for `NCC1CC1c1cc(Cl)c(F)cc1OCCF` (single isomer, unassigned; (+)) [(+)-Example 4, (+)-(2-(5-Chloro-4-fluoro-2-(2-fluoroethoxy)phenyl)cyclopropyl)methanamine], in assay [1], the EC50 turned out to be 506 nM and the “Emax, % 5-HT 5-HT2B” value is listed as “(39%) % 5-HT”. The EC50 in assay [2] (EC50, nM 5-HT2C) came out at 24 nM. Moreover, the “Emax, % 5-HT 5-HT2C” value in assay [2] was “(87%) % 5-HT”.

With `NCC1CC1c1c(OCCF)ccc(Cl)c1F` (single isomer, unassigned; (-)) [(−)-Example 31, (−)-(2-(3-Chloro-2-fluoro-6-(2-fluoroethoxy)phenyl)cyclopropyl)methanamine], in assay [1], the “Emax, % 5-HT 5-HT2B” value was “(0%) % 5-HT”. The EC50 in assay [2] (EC50, nM 5-HT2C) was 386 nM. In assay [2], the “Emax, % 5-HT 5-HT2C” value is reported as “(80%) % 5-HT”.

As for `C=CCOc1ccc(F)c(Cl)c1C1CC1CN` (single isomer, unassigned; (-)) [(−)-Example 53, (−)-(2-(6-(Allyloxy)-2-chloro-3-fluorophenyl)cyclopropyl)methanamine], the “Emax, % 5-HT 5-HT2B” value in assay [1] was “(57%) % 5-HT”. Also, the EC50 in assay [2] (EC50, nM 5-HT2C) amounted to 101 nM. The “Emax, % 5-HT 5-HT2C” value in assay [2] is reported as “(89%) % 5-HT”.

Regarding `CCOc1ccc(Cl)cc1C1CC1CN` (single isomer, unassigned; (-)) [(−)-Example 11, (−)-(2-(5-Chloro-2-ethoxyphenyl)cyclopropyl)methanamine], the concentration for a half-maximal effect (EC50) was 2310 nM in assay [1] and 646 nM in assay [2] (EC50, nM 5-HT2C). Also, the “Emax, % 5-HT 5-HT2B” value in assay [1] is “(26%) % 5-HT”. Also, the “Emax, % 5-HT 5-HT2C” value in assay [2] is given as “(72%) % 5-HT”.

With `CCOc1ccc(F)c(Cl)c1C1CC1CN` (single isomer, unassigned; (-)) [(−)-Example 51, (−)-(2-(2-Chloro-6-ethoxy-3-fluorophenyl)cyclopropyl)methanamine], in assay [1], the EC50 was found to be 1640 nM and the “Emax, % 5-HT 5-HT2B” value is “(33%) % 5-HT”. Besides, the EC50 in assay [2] (EC50, nM 5-HT2C) was determined as 38 nM. In addition, the “Emax, % 5-HT 5-HT2C” value in assay [2] is reported as “(89%) % 5-HT”.

`C=CCOc1ccc(Cl)cc1C1CC1CN` (single isomer, unassigned; (+)) [(+)-Example 23, (+)-(2-(2-(Allyloxy)-5-chlorophenyl)cyclopropyl)methanamine]: the EC50 in assay [1] was found to be 2210 nM; in assay [2] (EC50, nM 5-HT2C) it was 60 nM. The “Emax, % 5-HT 5-HT2B” value in assay [1] is recorded as “(32%) % 5-HT”. Besides, the “Emax, % 5-HT 5-HT2C” value in assay [2] is “(80%) % 5-HT”.

Consider `C#CCOc1ccc(Cl)cc1C1CC1CN` (single isomer, unassigned; (-)) [(−)-Example 26, (−)-(2-(5-Chloro-2-(prop-2-yn-1-yloxy)phenyl)cyclopropyl)methanamine], for which the EC50 was 4410 nM in assay [1] and 365 nM in assay [2] (EC50, nM 5-HT2C). The “Emax, % 5-HT 5-HT2B” value in assay [1] was “(30%) % 5-HT”. Also, the “Emax, % 5-HT 5-HT2C” value in assay [2] was “(71%) % 5-HT”.

With `NCC1CC1c1cc(Cl)c(F)cc1OCCF` (single isomer, unassigned; (-)) [(−)-Example 4, (−)-(2-(5-Chloro-4-fluoro-2-(2-fluoroethoxy)phenyl)cyclopropyl)methanamine], in assay [1], the EC50 is 2520 nM and the “Emax, % 5-HT 5-HT2B” value was “(26%) % 5-HT”. In addition, the EC50 in assay [2] (EC50, nM 5-HT2C) was 776 nM. In addition, the “Emax, % 5-HT 5-HT2C” value in assay [2] is listed as “(70%) % 5-HT”.

As to `C=CCOc1cc(Cl)c(Cl)cc1C1CC1CN` (single isomer, unassigned; (-)) [(−)-Example 35, (−)-(2-(2-(Allyloxy)-4,5-dichlorophenyl)cyclopropyl)methanamine], the “Emax, % 5-HT 5-HT2B” value in assay [1] is reported as “(14%) % 5-HT”. Moreover, the EC50 in assay [2] (EC50, nM 5-HT2C) stood at 278 nM. In addition, in assay [2], the “Emax, % 5-HT 5-HT2C” value is recorded as “(84%) % 5-HT”.

For `CCCOc1ccc(Cl)cc1C1CC1CN` (single isomer, unassigned; (+)) [(+)-Example 12, (+)-(2-(5-Chloro-2-propoxyphenyl)cyclopropyl)methanamine], in assay [1], the EC50 is 3440 nM and the “Emax, % 5-HT 5-HT2B” value was “(25%) % 5-HT”. Moreover, the EC50 in assay [2] (EC50, nM 5-HT2C) amounted to 103 nM. The “Emax, % 5-HT 5-HT2C” value in assay [2] is reported as “(72%) % 5-HT”.

Regarding `C=C(F)COc1ccc(F)cc1C1CC1CN` (single isomer, unassigned; (-)) [(−)-Example 9, (−)-(2-(5-Fluoro-2-((2-fluoroallyl)oxy)phenyl)cyclopropyl)methanamine], the EC50 in assay [2] (EC50, nM 5-HT2C) came to 985 nM. Further, in assay [2], the “Emax, % 5-HT 5-HT2C” value is reported as “(62%) % 5-HT”.

On to `NCC1CC1c1cc(F)c(F)cc1OCCF` (single isomer, unassigned; (+)) [(+)-Example 42, (+)-(2-(4,5-Difluoro-2-(2-fluoroethoxy)phenyl)cyclopropyl)methanamine], for which the EC50 in assay [2] (EC50, nM 5-HT2C) came to 7.3 nM. The “Emax, % 5-HT 5-HT2C” value in assay [2] is “(95%) % 5-HT”.

As for `C=C(C)COc1ccc(Cl)cc1C1CC1CN` (single isomer, unassigned; (-)) [(−)-Example 24, (−)-(2-(5-Chloro-2-((2-methylallyl)oxy)phenyl)cyclopropyl)methanamine], in assay [1], the EC50 was 6090 nM and the “Emax, % 5-HT 5-HT2B” value is “(39%) % 5-HT”.

As for `C=CCOc1ccc(Cl)c(Cl)c1C1CC1CN` (single isomer, unassigned; (+)) [(+)-Example 39], the “Emax, % 5-HT 5-HT2C” value in assay [2] is given as “(70%) % 5-HT”. Besides, in assay [2] (read-out: EC50, nM 5-HT2C), the EC50 came to 165 nM.

As to `C=CCOc1ccc(F)c(Cl)c1C1CC1CN` (single isomer, unassigned; (+)) [(+)-Example 53, (+)-(2-(6-(Allyloxy)-2-chloro-3-fluorophenyl)cyclopropyl)methanamine], the EC50 in assay [2] (EC50, nM 5-HT2C) came out at 96 nM. Further, the “Emax, % 5-HT 5-HT2C” value in assay [2] is “(92% 5-HT”.

For `CSCCOc1ccc(Cl)cc1C1CC1CN` (single isomer, unassigned; (-)) [(−)-Example 18, (−)-(2-(5-Chloro-2-(2-(methylthio)ethoxy)phenyl)cyclopropyl)methanamine], in assay [2] (EC50, nM 5-HT2C), the EC50 came to 1760 nM. For the same compound, the “Emax, % 5-HT 5-HT2C” value in assay [2] was “(11%) % 5-HT”.

As to `NCC1CC1c1c(OCCF)ccc(F)c1F` (single isomer, unassigned; (+)) [(+)-Example 47, (+)-(2-(2,3-Difluoro-6-(2-fluoroethoxy)phenyl)cyclopropyl)methanamine], the EC50 in assay [2] (EC50, nM 5-HT2C) amounted to 25 nM. In addition, the “Emax, % 5-HT 5-HT2C” value in assay [2] is “(95%) % 5-HT”.

Take `CCCOc1ccc(F)c(F)c1C1CC1CN` (single isomer, unassigned; (-)) [(−)-Example 48, (−)-(2-(2,3-Difluoro-6-propoxyphenyl)cyclopropyl)methanamine]: the EC50 in assay [2] (EC50, nM 5-HT2C) is 357 nM. Further, the “Emax, % 5-HT 5-HT2C” value in assay [2] is reported as “(68%) % 5-HT”.

Take `C=C(F)COc1ccc(Cl)cc1C1CC1CN` (single isomer, unassigned; (-)) [(−)-Example 25, (−)-(2-(5-Chloro-2-((2-fluoroallyl)oxy)phenyl)cyclopropyl)methanamine]: in assay [1], the EC50 came out at 6880 nM and the “Emax, % 5-HT 5-HT2B” value is reported as “(33%) % 5-HT”.

For `CSCCOc1ccc(Cl)cc1C1CC1CN` (single isomer, unassigned; (+)) [(+)-Example 18, (+)-(2-(5-Chloro-2-(2-(methylthio)ethoxy)phenyl)cyclopropyl)methanamine], in assay [2] (EC50, nM 5-HT2C), the EC50 is 244 nM. Also, in assay [2], the “Emax, % 5-HT 5-HT2C” value is “(24%) % 5-HT”.

Regarding `COCCOc1ccc(Cl)cc1C1CC1CN` (single isomer, unassigned; (+)) [(+)-Example 17, (+)-(2-(5-Chloro-2-(2-methoxyethoxy)phenyl)cyclopropyl)methanamine], in assay [2] (EC50, nM 5-HT2C), the EC50 stood at 183 nM. In assay [2], the “Emax, % 5-HT 5-HT2C” value is on record as “(8%) % 5-HT”.

For `NCC1CC1c1c(OCCF)ccc(F)c1Cl` (single isomer, unassigned; (+)) [(+)-Example 52, (+)-(2-(2-Chloro-3-fluoro-6-(2-fluoroethoxy)phenyl)cyclopropyl)methanamine], the EC50 in assay [2] (EC50, nM 5-HT2C) was determined as 49 nM. In addition, the “Emax, % 5-HT 5-HT2C” value in assay [2] was “(86%) % 5-HT”.
